{"source": "patent US20090191543A1", "about": "“IDENTIFICATION OF RAC1B AS A MARKER AND MEDIATOR OF METALLOPROTEINASE-INDUCED MALIGNANCY” (THEREGENTS OF THE UNIVERSITY OF CALIFORNIA, priority 2005, published 2009)", "key": {"MMP-3": {"target": "T1, MMP-3 (Rattus norvegicus, UniProt P03957)", "T1 construct": "expressed in transfected cells; host or cells: SCp2 cells; conditioned medium used as the MMP-3 source", "T1 sequence (P03957 98-475)": "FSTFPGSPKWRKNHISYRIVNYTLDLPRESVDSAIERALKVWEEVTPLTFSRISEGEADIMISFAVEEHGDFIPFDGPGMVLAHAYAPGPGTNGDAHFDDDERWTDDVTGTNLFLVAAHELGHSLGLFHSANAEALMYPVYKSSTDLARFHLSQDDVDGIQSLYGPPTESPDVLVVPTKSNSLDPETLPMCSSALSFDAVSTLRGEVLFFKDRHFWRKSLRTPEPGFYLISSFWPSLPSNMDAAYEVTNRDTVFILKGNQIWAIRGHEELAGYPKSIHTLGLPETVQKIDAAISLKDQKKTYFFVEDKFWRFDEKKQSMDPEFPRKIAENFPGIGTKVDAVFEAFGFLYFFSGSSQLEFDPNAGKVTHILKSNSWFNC", "experiment": "Effect of MMP inhibitor on cells treated with MMP-3 (vimentin-EGFP construct, morphology, FIG. 8b)", "format": "cell-based, mouse", "from_the_text": "The MMP inhibitor GM6001 blocked the MMP-3-mediated effects. […] Scale bar, 50 μm."}, "8-oxodeoxyguanosine": {"system": "8-oxodeoxyguanosine", "experiment": "8-oxoG analysis, FITC-avidin nuclear staining (DNA damage)", "format": "cell-based, mouse", "settings": "for MMP-3-induced increase in FITC-avidin nuclear staining: cells treated with MMP-3 plus inhibitor, FIG. 4b", "procedure": "ROS and 8-oxoG analyses. […] FITC-conjugated avidin (Sigma; 1 hr, 37° C.). […] ID NO: 12). […] J Cell Biol 158, 357-68 (2002)."}, "Snail": {"system": "Snail", "experiment": "Snail transcript expression", "format": "cell-based, mouse", "settings": "FIG. 3b; for expression of the transcription factor Snail: MMP-3, or H2O2 in the absence of MMP-3", "procedure": "(§1) Except as otherwise indicated, cells were incubated in the presence of conditioned medium containing MMP-3 for 4 days and with 25 μM H2O2 for 7 days. NAC was used at a concentration of 10 mM. Antibodies against cytokeratin and vimentin were described previously (Lochter, A. et al. J Biol Chem 272, 5007-15, 1997; Lochter, A. et al. J Cell Biol 139, 1861-72, 1997).\n(§2) […]; all modified plasmids were sequence-verified."}, "SCp2 cells [1]": {"system": "SCp2 cells", "experiment": "PALA resistance assay (genomic instability)", "format": "cell-based, mouse"}, "SCp2 cells [2]": {"system": "SCp2 cells", "experiment": "Cell scattering (FIG. 3f)", "format": "cell-based, mouse", "procedure": "as §1"}, "vimentin": {"system": "vimentin", "experiment": "Mesenchymal vimentin expression", "format": "cell-based, mouse", "settings": "for expression of mesenchymal vimentin: MMP-3 4 days or 25 μM H2O2 7 days", "procedure": "as §1, §2"}, "SCp2 cells [3]": {"system": "SCp2 cells", "experiment": "MMP-3-induced cell motility, invasion and morphological alterations (not shown)", "format": "cell-based, mouse", "settings": "NAC"}, "cytokeratins": {"system": "cytokeratins", "experiment": "Epithelial cytokeratin levels in MMP-3-treated cells", "format": "cell-based, mouse", "from_the_text": "Cell culture, antibodies, and plasmids. Cell culture was as previously described (Lochter, A. et al. Misregulation of stromelysin-1 expression in mouse mammary tumor cells accompanies acquisition of stromelysin-1-dependent invasive properties. J. Biol Chem 272, 5007-15, 1997; Lochter, A. et al. Matrix metalloproteinase stromelysin-1 triggers a cascade of molecular alterations that leads to stable epithelial-to-mesenchymal conversion and a premalignant phenotype in mammary epithelial cells. J Cell Biol 139, 1861-72, 1997); for gene repression, a 5 mg ml^−1 stock solution of tetracycline in 100% ethanol was diluted 1:1000 into culture medium and changed daily. To stimulate cells with MMP-3, we used medium that had been conditioned by SCp2 cells containing the tet-regulated, autoactivated MMP-3-construct (Lochter, A. et al. J Biol Chem 272, 5007-15, 1997; Lochter, A. et al. J Cell Biol 139, 1861-72, 1997) with expression induced by growth in the absence of tetracycline; conditioned medium from cells repressed by treatment with tetracycline was used for controls. This conditioned medium was analyzed by zymography to verify that only MMP-3 was being expressed, and was shown be active through extracellular proteolysis (FIG. 8). […] NAC was used at a concentration of 10 mM. […]"}, "SCp2 cells [4]": {"system": "SCp2 cells", "experiment": "LC50 of PALA for SCp2 cells", "settings": "read-out: LC50 of PALA for SCp2 cells"}, "mammary epithelial cells": {"system": "mammary epithelial cells", "experiment": "Cell motility assessed by scratch assay", "format": "cell-based, mouse", "settings": "FIG. 1f", "from_the_text": "FIG. 1f is a graph showing rate of cell migration and motility as assessed by scratch assay (Goodman, S. L., Vollmers, H. P., and Birchmeier, W. Cell 41, 1029-1038, 1985)."}, "[5]": {"system": "keratin, E-cadherin, vimentin, SM actin, TGFβ, Snail, collagen A1 and fibronectin", "settings": "cells treated with MMP-3 for 4 days; FIG. 5b", "protocol": "(§3) Transcript levels were assessed using RT/PCR by isolating RNA (Tri-pure; Roche Diagnostics), synthesizing cDNA, and performing quantitative, real-time PCR (Lightcycler, Roche Diagnostics); all these experiments were normalized to GAPDH."}, "cellular ROS": {"system": "cellular ROS", "settings": "treatment with MMP-3; FIG. 2a", "protocol": "ROS and 8-oxoG analyses. To measure ROS concentrations, cells were incubated in the dark with 50 mM DCFDA (Molecular Probes) for 30 min in serum- and phenol-red-free medium. […] Images were captured using a Nikon Diaphot 300 microscope and Spot RT camera and software (Technical Instruments, Burlingame). Fluorescence was quantified using IMAGEJ (URL:=<http://rsb.info.nih.gov/ij/index.html>). For DCFDA staining, cellular fluorescence was quantified, for FITC-avidin staining, nuclear fluorescence was measured (using a DAPI image mask). More than 250 measurements were made for each data point."}, "Cdc42": {"system": "Cdc42", "settings": "MMP-3-treated cells; not shown"}, "SCp2 cells [6]": {"system": "SCp2 cells", "settings": "MMP-3 for 14 days, then selected with PALA; FIG. 4f"}, "CAD locus": {"system": "CAD locus", "experiment": "Fluorescence in situ hybridization of CAD gene locus", "format": "cell-based, mouse", "settings": "exposure to MMP-3; FIG. 4d"}, "Rac1b": {"system": "Rac1b", "settings": "mammary epithelial cells treated with MMP-3; FIGS. 1b-1d", "protocol": "as §3\nFor analysis of Rac1 and Rac1b (FIG. 1c), oligonucleotide primers that hybridize to sequences flanking the splice insertion site were used; for specific analysis of Rac1b (FIG. 1d, 4h), oligonucleotide primers specific for the Rac1b splice isoform were used."}, "RhoA": {"system": "RhoA", "settings": "MMP-3-treated cells; not shown"}, "[7]": {"settings": "SCp2 cells, treatment with MMP-3 for 28 days, FIG. 5a"}}}
{"compound": "CNC(=O)[C@H](Cc1c[nH]c2ccccc12)NC(=O)[C@@H](CC(=O)NO)CC(C)C", "note": "[GM6001]", "values": [{"measurement": "MMP-3-mediated effects", "setting": "MMP-3; cells treated with MMP-3", "result": "blocked"}, {"measurement": "malignant transformation (flattened morphology of invasive cells) of MMP-3 induced cells", "setting": "MMP-3; coincubation with GM6001", "result": "prevents"}, {"measurement": "MMP-3-induced increase in FITC-avidin nuclear staining", "setting": "8-oxodeoxyguanosine", "result": "blocked"}]}
{"compound": "OO", "note": "[H2O2, reference compound]", "values": [{"measurement": "expression of the transcription factor Snail", "setting": "Snail", "result": "induced"}, {"measurement": "PALA resistance in the absence of MMP-3", "setting": "SCp2 cells [1]; H2O2 25 μM, FIG. 4e", "result": "reproduced"}, {"measurement": "cell scattering", "setting": "SCp2 cells [2]", "result": "cell scattering induced"}, {"measurement": "expression of mesenchymal vimentin", "setting": "vimentin; FIG. 3g", "result": "can stimulate expression"}]}
{"compound": "CC(=O)N[C@@H](CS)C(=O)O", "note": "[NAC, N-acetyl cysteine, reference compound]", "values": [{"measurement": "MMP-3-enhanced expression of transcription factor Snail", "setting": "Snail; NAC 10 mM", "result": "blocked"}, {"measurement": "MMP-3-induced increase in FITC-avidin nuclear staining", "setting": "8-oxodeoxyguanosine", "result": "blocked"}, {"measurement": "MMP-3-induced PALA resistance / CAD amplification", "setting": "SCp2 cells [1]; 14 d treatment with MMP-3, NAC 10 mM, FIG. 4e", "result": "inhibited"}, {"measurement": "MMP-3-induced cell motility, invasion, and morphological alterations", "setting": "SCp2 cells [3]", "result": "inhibited"}, {"measurement": "MMP-3-induced upregulation of mesenchymal vimentin", "setting": "vimentin; NAC 10 mM, FIG. 3g", "result": "effectively inhibited"}, {"measurement": "MMP-3-induced downregulation of epithelial cytokeratins", "setting": "cytokeratins; NAC 10 mM, FIG. 3a", "result": "effectively inhibited"}]}
{"compound": "O=C(O)C[C@H](NC(=O)CP(=O)(O)O)C(=O)O", "note": "[PALA, N-(phosphonacetyl)-L-aspartate]", "values": [{"measurement": "CC50", "setting": "SCp2 cells [4]", "result": 25, "unit": "µM"}]}
{"compound": "MMP-3: autoactivated MMP-3 supplied as medium conditioned by SCp2 cells with tet-regulated construct", "values": [{"measurement": "cell migration and motility", "setting": "mammary epithelial cells", "result": "causes an increase"}, {"measurement": "transcript levels of keratin and E-cadherin", "setting": "[5]", "result": "greater than two-fold decrease"}, {"measurement": "transcript levels of vimentin, SM actin, TGFβ, Snail, collagen A1 and fibronectin", "setting": "[5]", "result": "two-fold or greater increase"}, {"measurement": "cellular ROS (DCFDA fluorescence)", "setting": "cellular ROS", "result": "produced increases"}, {"measurement": "activity of Cdc42", "setting": "Cdc42", "result": "unchanged"}, {"measurement": "genomic alterations by CGH analysis", "setting": "SCp2 cells [6]", "result": "many additional genomic amplifications and deletions"}, {"measurement": "expression of the transcription factor Snail", "setting": "Snail", "result": "enhances expression"}, {"measurement": "FITC-avidin nuclear staining", "setting": "8-oxodeoxyguanosine; cells treated with MMP-3 vs untreated, FIG. 4a", "result": "significantly increased"}, {"measurement": "PALA-resistant colonies, after 28 days of MMP-3 exposure", "setting": "SCp2 cells [1]; SCp2 cells, 200 μM PALA, after 28 days", "result": 700, "unit": "colonies/10^5 cells"}, {"measurement": "PALA-resistant colonies, after one week of MMP-3 exposure", "setting": "SCp2 cells [1]; SCp2 cells, 200 μM PALA, one week of MMP-3 exposure", "result": 200, "unit": "colonies/10^5 cells"}, {"measurement": "cell scattering", "setting": "SCp2 cells [2]", "result": "cell scattering induced"}, {"measurement": "CAD locus copy number in PALA-resistant cells", "setting": "CAD locus", "result": "amplification of the CAD locus"}, {"measurement": "expression of mesenchymal vimentin", "setting": "vimentin; FIG. 3g", "result": "can stimulate expression"}, {"measurement": "vimentin staining", "setting": "vimentin; [7]", "result": "increase in vimentin"}, {"measurement": "Rac1b transcript and expression levels", "setting": "Rac1b", "result": "upregulates"}, {"measurement": "activity of RhoA", "setting": "RhoA", "result": "unchanged"}, {"measurement": "cytokeratin staining", "setting": "cytokeratins; [7]", "result": "decrease in cytokeratins"}]}
